The source of these data is ChEMBL document CHEMBL2412954, “Synthesis and characterization of time-resolved fluorescence probes for evaluation of competitive binding to melanocortin receptors” (Bioorg Med Chem, 2013).

Assay [1] has as its target T1, Melanocortin receptor 4 (Homo sapiens, UniProt P32245). The assay is described as follows: Displacement of Eu-DTPA-PEGOMSH(7) from human MC4R expressed in […] cells after 1 hr by time-resolved fluorescence assay. In kind it is cell-based, HEK293.
In assay [2] the target is T1, Melanocortin receptor 4. The assay is described as follows: Displacement of Eu-DTPA-PEGO-NDP-alpha-MSH-NH2 from human MC4R expressed in […] cells after 1 hr by time-resolved fluorescence assay. In kind it is cell-based, HEK293.

By Ki is commonly meant the dissociation constant of the complex between target and ligand, obtained from inhibition or displacement.

T1 sequence (P32245 whole entry): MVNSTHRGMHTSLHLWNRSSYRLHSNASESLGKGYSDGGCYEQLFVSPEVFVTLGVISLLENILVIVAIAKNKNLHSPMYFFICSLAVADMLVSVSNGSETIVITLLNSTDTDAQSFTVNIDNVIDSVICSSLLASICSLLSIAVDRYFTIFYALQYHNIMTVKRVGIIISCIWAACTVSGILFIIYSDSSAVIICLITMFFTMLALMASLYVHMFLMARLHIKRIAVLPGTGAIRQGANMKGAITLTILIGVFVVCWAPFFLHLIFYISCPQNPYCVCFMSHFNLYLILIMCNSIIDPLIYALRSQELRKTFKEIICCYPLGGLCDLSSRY

Consider `CC(C)C(O)CCC(C)C(O)CCC(C)C(O)CCC(OCCCCc1cn(CCCCCC(=O)N[C@@H](CO)C(N)=O)nn1)C(C)CCC(O)C(C)CCC(O)C(C)C` (some centres not stated), for which the Ki result in assay [1] (hek293) and in assay [2] (hek293) was “Not Active” throughout.

Turning to `CC(C)C(O)CCC(C)C(O)CCC(C)C(CCC(O)C(C)CCC(O)C(C)CCC(OCCCCc1cn(CCCCCC(=O)N[C@@H](CO)C(N)=O)nn1)C(C)C)OCCCCc1cn(CCCCCC(=O)N[C@@H](CO)C(N)=O)nn1` (some centres not stated), the Ki entry in assay [1] (hek293) and in assay [2] (hek293) was “Not Active” in each case.

For `CCCC[C@H](NC(=O)[C@H](CO)NC(=O)CCCCCn1cc(CCCCOC(CCC(O)C(C)CCC(O)C(C)CCC(O)C(C)C)C(C)CCC(O)C(C)CCC(O)C(C)C)nn1)C(=O)N[C@@H](CCC(=O)O)C(=O)N[C@@H](Cc1cnc[nH]1)C(=O)N[C@H](Cc1ccccc1)C(=O)N[C@@H](CCCNC(=N)N)C(=O)N[C@@H](Cc1c[nH]c2ccccc12)C(N)=O` (some centres not stated), the values for the Ki in assay [1] (read-out: Ki) and in assay [2] (read-out: Ki) were 2.4 nM and 33 nM, respectively.

For the compound `CCCC[C@H](NC(=O)[C@H](CO)NC(=O)CCCCCn1cc(CCCCOC(CCC(C)C(O)CCC(C)C(O)CCC(OCCCCc2cn(CCCCCC(=O)N[C@@H](CO)C(=O)N[C@@H](CCCC)C(=O)N[C@@H](CCC(=O)O)C(=O)N[C@@H](Cc3cnc[nH]3)C(=O)N[C@H](Cc3ccccc3)C(=O)N[C@@H](CCCNC(=N)N)C(=O)N[C@@H](Cc3c[nH]c4ccccc34)C(N)=O)nn2)C(C)CCC(O)C(C)CCC(O)C(C)C)C(C)C)nn1)C(=O)N[C@@H](CCC(=O)O)C(=O)N[C@@H](Cc1cnc[nH]1)C(=O)N[C@H](Cc1ccccc1)C(=O)N[C@@H](CCCNC(=N)N)C(=O)N[C@@H](Cc1c[nH]c2ccccc12)C(N)=O` (some centres not stated), the Ki in assay [1] (read-out: Ki) is 1.7 nM.
